Reference: the supplement of paper PMC13380429
± gives the standard deviation of the averaged measurements.

What was measured:
Conditions in all cases: 72 h
Caco-2 [1] = assay: cell viability relative to DMSO; higher = less toxic
Calu-3 [2] = assay: as above
HepG2 [3] = assay: as above
U2OS [4] = assay: as above
Vero E6 [5] = assay: as above
Caco-2 [6] = assay: relative viability EC50 (midpoint between 100% and the lowest measured viability); higher = less toxic
Calu-3 [7] = assay: as above
HepG2 [8] = assay: as above
U2OS [9] = assay: as above
Vero E6 [10] = assay: as above
Caco-2 [11] = assay: drug sensitivity score (DSS) for viability; higher = more toxic; extreme values may be limits of the assay
Calu-3 [12] = assay: as above
HepG2 [13] = assay: as above
U2OS [14] = assay: as above
Vero E6 [15] = assay: as above

| SMILES | cell viability (Caco-2 [1]; 1 nM) | cell viability (Caco-2 [1]; 10 nM) | cell viability (Caco-2 [1]; 100 nM) | cell viability (Caco-2 [1]; 1000 nM) | cell viability (Caco-2 [1]; 10000 nM) | cell viability (Calu-3 [2]; 1 nM) | cell viability (Calu-3 [2]; 10 nM) | cell viability (Calu-3 [2]; 100 nM) | cell viability (Calu-3 [2]; 1000 nM) | cell viability (Calu-3 [2]; 10000 nM) | cell viability (HepG2 [3]; 1 nM) | cell viability (HepG2 [3]; 10 nM) | cell viability (HepG2 [3]; 100 nM) | cell viability (HepG2 [3]; 1000 nM) | cell viability (HepG2 [3]; 10000 nM) | cell viability (U2OS [4]; 1 nM) | cell viability (U2OS [4]; 10 nM) | cell viability (U2OS [4]; 100 nM) | cell viability (U2OS [4]; 1000 nM) | cell viability (U2OS [4]; 10000 nM) | cell viability (Vero E6 [5]; 1 nM) | cell viability (Vero E6 [5]; 10 nM) | cell viability (Vero E6 [5]; 100 nM) | cell viability (Vero E6 [5]; 1000 nM) | cell viability (Vero E6 [5]; 10000 nM) | relative viability EC50 (Caco-2 [6]) | relative viability EC50 (Calu-3 [7]) | relative viability EC50 (HepG2 [8]) | relative viability EC50 (U2OS [9]) | relative viability EC50 (Vero E6 [10]) | drug sensitivity score (Caco-2 [11]) | drug sensitivity score (Calu-3 [12]) | drug sensitivity score (HepG2 [13]) | drug sensitivity score (U2OS [14]) | drug sensitivity score (Vero E6 [15]) |
| --- | --- | --- | --- | --- | --- | --- | --- | --- | --- | --- | --- | --- | --- | --- | --- | --- | --- | --- | --- | --- | --- | --- | --- | --- | --- | --- | --- | --- | --- | --- | --- | --- | --- | --- | --- |
| C=C[C@H]1CN2CC[C@H]1C[C@H]2[C@H](O)c1ccnc2ccccc12 [cinchonidine] | 94.8 ± 2.2% | 98.6 ± 0.42% | 99.8 ± 11% | 114 ± 16% | 116 ± 5.9% | 95.2 ± 1.6% | 102 ± 2.5% | 100 ± 4% | 98.7 ± 5% | 106 ± 5.8% | 104 ± 7.8% | 94.5 ± 1.2% | 97.05 ± 0.35% | 92 ± 0.42% | 94.2 ± 2.8% | 98.35 ± 0.071% | 103 ± 2% | 97.85 ± 0.78% | 102 ± 1.2% | 99.5 ± 4.2% | 104 ± 4% | 105 ± 5.8% | 106 ± 0.21% | 95.55 ± 0.64% | 97.1 ± 1.7% | > 10 µM | > 10 µM | > 10 µM | > 10 µM | > 10 µM | 0 | 0 | 0 | 0 | 0 |
| C#CCN1C(C)=C(C(=O)OC)C(c2cccc([N+](=O)[O-])c2)C(C(=O)OCC)=C1C (stereo not given) [MRS-1845] | 92% | 98.1% | 96.9% | 88.6% | 85.4% | 99.5% | 91.3% | 95.6% | 98.3% | 90.6% | 95.2% | 105% | 91.3% | 106% | 95.7% | 107% | 97.8% | 105% | 100% | 97.2% | 94.1% | 99.6% | 98% | 99.3% | 99% | > 10 µM | > 10 µM | > 10 µM | > 10 µM | > 10 µM | 0.3 | 0 | 0 | 0 | 0 |
| CCCCC(=O)O[C@]1(C(=O)CO)CC[C@H]2[C@@H]3CCC4=CC(=O)CC[C@]4(C)[C@H]3[C@@H](O)C[C@@]21C [hydrocortisone-valerate] | 103% | 99% | 88% | 109% | 99.3% | 87.3% | 97.1% | 86.5% | 95.9% | 103% | 103% | 97% | 101% | 96.5% | 103% | 95.5% | 97.1% | 92.5% | 100% | 93.2% | 107% | 105% | 101% | 98.5% | 101% | > 10 µM | > 10 µM | > 10 µM | > 10 µM | > 10 µM | 0 | 0 | 0 | 0 | 0 |
| CS(=O)(=O)c1ccc(-c2cnc(N)c(C(=O)Nc3ccccc3)n2)cc1 [VE-821] | 102% | 94.8% | 101% | 95.1% | 97.4% | 99.1% | 94.7% | 102% | 95.1% | 95.3% | 97.3% | 99.3% | 95% | 98.6% | 84.2% | 102% | 95.7% | 96.9% | 93.1% | 91.6% | 99.1% | 95.7% | 97.1% | 98% | 94% | > 10 µM | > 10 µM | > 10 µM | > 10 µM | > 10 µM | 0 | 0 | 0.4 | 0 | 0 |
| Nc1ccc(S(=O)(=O)Nc2nccs2)cc1 [sulfathiazole] | 95.8% | 96.1% | 95.1% | 93.6% | 99% | 86.1% | 94.9% | 92.2% | 98% | 89.3% | 102% | 95% | 94.2% | 105% | 116% | 94.2% | 98.5% | 94.3% | 93.6% | 102% | 96.9% | 100% | 97.5% | 104% | 102% | > 10 µM | > 10 µM | > 10 µM | > 10 µM | > 10 µM | 0 | 0 | 0 | 0 | 0 |
| Clc1cccc(Cl)c1CSc1nnc(-c2cnccn2)s1 [yoda-1] | 100% | 95.3% | 94.7% | 92.6% | 79.6% | 98.8% | 91.1% | 97% | 98.8% | 91% | 84.7% | 100% | 97.6% | 102% | 91% | 101% | 98.9% | 90.6% | 92% | 93% | 97.4% | 100% | 94.2% | 96% | 94% | > 10 µM | > 10 µM | > 10 µM | > 10 µM | > 10 µM | 0.9 | 0 | 0 | 0 | 0 |
| Cn1c(=O)c2c(ncn2CC(=O)O)n(C)c1=O [acefylline] | 102% | 98% | 114% | 110% | 105% | 104% | 101% | 114% | 93.8% | 102% | 93% | 98.8% | 102% | 95.1% | 108% | 98.7% | 97% | 96.8% | 95.5% | 97.8% | 104% | 105% | 107% | 105% | 86.5% | > 10 µM | > 10 µM | > 10 µM | > 10 µM | > 10 µM | 0 | 0 | 0 | 0 | 0.1 |
| COc1cc2c(cc1OC)CN(CCc1ccc(NC(=O)c3cccc4c(=O)c5cccc(OC)c5[nH]c34)cc1)CC2 [elacridar] | 97.3% | 91.6% | 92.2% | 95.5% | 88.3% | 98.9% | 94.3% | 99.6% | 101% | 89% | 99.6% | 107% | 101% | 96.6% | 97.9% | 96.5% | 99.3% | 99.2% | 100% | 99.8% | 97% | 94.8% | 98.7% | 93.5% | 103% | > 10 µM | > 10 µM | > 10 µM | > 10 µM | > 10 µM | 0 | 0 | 0 | 0 | 0 |
| CCOc1cc(N)c(Cl)cc1C(=O)NCC1CN(Cc2ccc(F)cc2)CCO1 (stereo not given) [mosapride] | 89.6% | 93.4% | 99.9% | 96.1% | 100% | 95.7% | 87.4% | 105% | 97.6% | 106% | 95.4% | 99.7% | 98.8% | 98.3% | 101% | 101% | 95.9% | 99% | 95.9% | 103% | 99.1% | 102% | 101% | 94.5% | 98.3% | > 10 µM | > 10 µM | > 10 µM | > 10 µM | > 10 µM | 0 | 0 | 0 | 0 | 0 |
| CC(C)C(=O)OC[C@@]1(N=[N+]=[N-])O[C@@H](n2ccc(N)nc2=O)[C@H](OC(=O)C(C)C)[C@@H]1OC(=O)C(C)C [balapiravir] | 103% | 87% | 100% | 98.7% | 88.9% | 99% | 99.1% | 97% | 100% | 102% | 95.6% | 102% | 92.6% | 102% | 92.4% | 99.6% | 94.9% | 96% | 95.5% | 94.6% | 98.6% | 92.8% | 93.4% | 98.4% | 90.7% | > 10 µM | > 10 µM | > 10 µM | > 10 µM | > 10 µM | 0 | 0 | 0 | 0 | 0 |
| CCCCOc1ccc(CC(=O)NO)cc1 [bufexamac] | 91.6% | 89.5% | 96.7% | 90.6% | 92.8% | 95.8% | 91.2% | 104% | 98.2% | 99.3% | 95% | 94.6% | 87.5% | 99.9% | 98.2% | 100% | 97.8% | 98.1% | 96% | 99% | 81.9% | 103% | 89.2% | 96.1% | 85.1% | > 10 µM | > 10 µM | > 10 µM | > 10 µM | > 10 µM | 0 | 0 | 0 | 0 | 0.1 |
| COc1ccc2cc(C(C)C(=O)Oc3ccc(C(N)=S)cc3)ccc2c1 (stereo not given) [ATB-346] | 90% | 102% | 93.7% | 89.6% | 98.6% | 100% | 102% | 98.8% | 102% | 101% | 98.2% | 88.4% | 97.2% | 98.7% | 97.7% | 99.7% | 100% | 99.1% | 99.9% | 96.9% | 100% | 94.3% | 95.7% | 94.4% | 97.6% | > 10 µM | > 10 µM | > 10 µM | > 10 µM | > 10 µM | 0 | 0 | 0 | 0 | 0 |
| CCOC(=O)[C@]12CC1/C(=N\O)c1ccccc1O2 (stereo not given in full) [CPCCOEt] | 103% | 94.7% | 89.2% | 98.8% | 104% | 94.1% | 105% | 92.3% | 98.4% | 95.4% | 91.7% | 102% | 93.5% | 104% | 99.2% | 98.7% | 92.2% | 96.4% | 94.4% | 96.4% | 93.5% | 99.1% | 90.6% | 95.2% | 110% | > 10 µM | > 10 µM | > 10 µM | > 10 µM | > 10 µM | 0 | 0 | 0 | 0 | 0 |
| Oc1ccc(Cl)cc1 [parachlorophenol] | 94.2% | 91.5% | 99.7% | 90.4% | 100% | 102% | 100% | 98.9% | 91.2% | 104% | 108% | 99.1% | 90.9% | 111% | 98.4% | 98.5% | 96.5% | 97.2% | 95.4% | 102% | 100% | 101% | 99.3% | 97.7% | 99.7% | > 10 µM | > 10 µM | > 10 µM | > 10 µM | > 10 µM | 0 | 0 | 0 | 0 | 0 |
